The test system of one experiment is A2780. The experiment can be described thus: Cytotoxicity against human A2780 cells after 96 hrs by SRB assay. To be noted: A2780, 96 h. It counts as functional, cell-based. In general terms: The SRB assay estimates cell density from bound dye.
Another experiment concerns NIH3T3. The experiment in a line: Cytotoxicity against mouse NIH/3T3 cells after 96 hrs by SRB assay. It counts as cell-based. To be noted: NIH3T3, 96 h.
In another experiment the test system is MCF7. The experiment in a line: Cytotoxicity against human MCF7 cells after 96 hrs by SRB assay. To be noted: MCF7, 96 h. It counts as functional, cell-based.
The subject of another experiment is 518A2. The experiment can be described thus: Cytotoxicity against human 518A2 cells after 96 hrs by SRB assay. It counts as functional, cell-based. To be noted: 518A2, 96 h.
The test system of a further experiment is HT-29. The experiment can be described thus: cells. To be noted: Homo sapiens, HT-29, 96 h.
In the next experiment the test system is A549. The experiment in a line: Cytotoxicity against human A549 cells after 96 hrs by SRB assay. It counts as functional, cell-based. To be noted: A549, 96 h.

The structures appear in SMILES notation. pEC50: −log10 of the molar value.

Description for HT-29: Cytotoxicity against human HT-29 cells after 96 hrs by SRB assay

Usually pEC50 stands for −log10 of the EC50, conventionally taken in molar units. High values mean a small EC50, low ones a large EC50. For `CC(=O)O[C@H]1CC[C@]2(C)[C@H]3CC[C@@H]4[C@H]5[C@H](C(C)=O)CC[C@]5(C(=O)O)CC[C@@]4(C)[C@]3(C)CC[C@H]2C1(C)C`, the pEC50 with A2780, in the experiment on NIH3T3, in the experiment with MCF7, with 518A2, in the experiment on HT-29 and in the experiment with A549 was < 4.52 throughout.
Regarding `C[C@@H](N)[C@@H]1CC[C@]2(C(=O)OCc3ccccc3)CC[C@]3(C)[C@H](CC[C@@H]4[C@@]5(C)CC[C@H](O)C(C)(C)[C@@H]5CC[C@]43C)[C@@H]12`, the pEC50 in the experiment on A2780 is 5.12; with NIH3T3, 5.14; with MCF7, 5.25; in the experiment on 518A2, 5.12; with HT-29, 5.30; in the experiment with A549, 5.00.
On to `CC(=O)O[C@H]1CC[C@]2(C)[C@H]3CC[C@@H]4[C@H]5[C@H]([C@@H](C)N)CC[C@]5(C(=O)OCc5ccccc5)CC[C@@]4(C)[C@]3(C)CC[C@H]2C1(C)C`, for which the pEC50 in the experiment with A2780 was 5.40; in the experiment with NIH3T3, 5.39; in the experiment with MCF7, 5.52; with 518A2, 5.66; in the experiment with HT-29, 5.64; in the experiment with A549 it was 5.51.
For the molecule `CC(=O)O[C@H]1CC[C@]2(C)[C@H]3CC[C@@H]4[C@H]5[C@H](C(C)=O)CC[C@]5(C(=O)NCCN(C)C)CC[C@@]4(C)[C@]3(C)CC[C@H]2C1(C)C`, the pEC50 is 5.42 in the experiment on A2780; 5.85 in the experiment on NIH3T3; 5.60 with MCF7; 5.43 with 518A2; 5.35 in the experiment with HT-29; 5.54 with A549.
As for `COC(=O)[C@]12CC[C@@H]([C@H](C)N)[C@@H]1[C@H]1CC[C@@H]3[C@@]4(C)CC[C@H](OC(C)=O)C(C)(C)[C@@H]4CC[C@@]3(C)[C@]1(C)CC2`, the pEC50 was 5.22 in the experiment with A2780; 5.36 in the experiment on NIH3T3; 5.34 in the experiment on MCF7; 5.20 in the experiment on 518A2; 5.70 in the experiment with HT-29; 5.18 with A549.
For the molecule `CC(=O)[C@@H]1CC[C@]2(C(=O)OCc3ccccc3)CC[C@]3(C)[C@H](CC[C@@H]4[C@@]5(C)CCC(=O)C(C)(C)[C@@H]5CC[C@]43C)[C@@H]12`, the negative logarithm of the EC50 (pEC50) with A2780, with NIH3T3, with MCF7, in the experiment on 518A2, with HT-29 and with A549 was < 4.52 each time.
Consider `CC(=O)[C@@H]1CC[C@]2(C(=O)NCCN)CC[C@]3(C)[C@H](CC[C@@H]4[C@@]5(C)CC[C@H](O)C(C)(C)[C@@H]5CC[C@]43C)[C@@H]12`, for which the pEC50 with A2780 is 5.60; in the experiment with NIH3T3, 5.60; in the experiment with MCF7, 5.62; in the experiment on 518A2, 5.60; with HT-29, 5.64; with A549 it was 5.59.
In the case of `CC(=O)O[C@H]1CC[C@]2(C)[C@H]3CC[C@@H]4[C@H]5[C@H](/C(C)=N/O)CC[C@]5(C(=O)OCc5ccccc5)CC[C@@]4(C)[C@]3(C)CC[C@H]2C1(C)C`, the pEC50 in the experiment on A2780 was 5.21; with NIH3T3, 5.21; with MCF7, 5.17; with 518A2, 5.05; with HT-29, 4.91; in the experiment on A549, 5.10.
Take `C[C@@H](N)[C@@H]1CC[C@]2(CO)CC[C@]3(C)[C@H](CC[C@@H]4[C@@]5(C)CC[C@H](O)C(C)(C)[C@@H]5CC[C@]43C)[C@@H]12`: the pEC50 in the experiment on A2780 was < 4.52; in the experiment with NIH3T3, 4.80; in the experiment with MCF7, < 4.52; in the experiment with 518A2 it was 4.63; in the experiment on HT-29, 4.69; in the experiment on A549, < 4.52.
Consider `COC(=O)[C@]12CC[C@@H]([C@@H](C)NC(C)=O)[C@@H]1[C@H]1CC[C@@H]3[C@@]4(C)CC[C@H](OC(C)=O)C(C)(C)[C@@H]4CC[C@@]3(C)[C@]1(C)CC2`, for which the pEC50 in the experiment with A2780 is 4.56; with NIH3T3 it was 4.80; with MCF7, 4.67; in the experiment with 518A2 it was 4.57; in the experiment with HT-29 it was 4.56; with A549, 4.64.
Take `CC(=O)O[C@H]1CC[C@]2(C)[C@H]3CC[C@@H]4[C@H]5[C@H](/C(C)=N\O)CC[C@]5(C(=O)OCc5ccccc5)CC[C@@]4(C)[C@]3(C)CC[C@H]2C1(C)C`: the pEC50 was 5.00 with A2780; 4.85 with NIH3T3; 5.14 with MCF7; 4.78 in the experiment on 518A2; 4.70 with HT-29; 4.95 in the experiment on A549.
For `CC(=O)[C@@H]1CC[C@]2(C(=O)OCc3ccccc3)CC[C@]3(C)[C@H](CC[C@@H]4[C@@]5(C)CC[C@H](N)C(C)(C)[C@@H]5CC[C@]43C)[C@@H]12`, the pEC50 is 5.66 with A2780; 5.64 in the experiment with NIH3T3; 5.74 with MCF7; 5.72 with 518A2; 5.82 in the experiment on HT-29; 5.68 in the experiment on A549.
With `COC(=O)[C@]12CC[C@@H](/C(C)=N\O)[C@@H]1[C@H]1CC[C@@H]3[C@@]4(C)CC[C@H](OC(C)=O)C(C)(C)[C@@H]4CC[C@@]3(C)[C@]1(C)CC2`, the pEC50 in the experiment with A2780 was 4.89; in the experiment on NIH3T3, 4.91; with MCF7, 4.92; in the experiment on 518A2, 5.01; in the experiment with HT-29, 4.89; with A549, 5.06.
As to `CC(=O)O[C@H]1CC[C@]2(C)[C@H]3CC[C@@H]4[C@H]5[C@H]([C@H](C)N)CC[C@]5(C(=O)OCc5ccccc5)CC[C@@]4(C)[C@]3(C)CC[C@H]2C1(C)C`, the pEC50 in the experiment on A2780 was 5.64; with NIH3T3, 5.70; in the experiment on MCF7 it was 5.89; in the experiment on 518A2, 5.60; with HT-29, 5.89; in the experiment on A549 it was 5.48.
`CC(=O)[C@@H]1CC[C@]2(N)CC[C@]3(C)[C@H](CC[C@@H]4[C@@]5(C)CC[C@H](O)C(C)(C)[C@@H]5CC[C@]43C)[C@@H]12`: the pEC50 was < 4.52 with A2780; 4.56 in the experiment on NIH3T3; < 4.52 in the experiment with MCF7; < 4.52 with 518A2; 4.73 in the experiment with HT-29; < 4.52 with A549.
Regarding `COC(=O)[C@]12CC[C@@H]([C@H](C)NC(C)=O)[C@@H]1[C@H]1CC[C@@H]3[C@@]4(C)CC[C@H](OC(C)=O)C(C)(C)[C@@H]4CC[C@@]3(C)[C@]1(C)CC2`, the pEC50 was 4.60 in the experiment on A2780; 4.71 with NIH3T3; 4.75 in the experiment on MCF7; 4.52 in the experiment on 518A2; 4.61 in the experiment on HT-29; 4.59 with A549.
`CC(=O)OC[C@]12CC[C@@H]([C@@H](C)N)[C@@H]1[C@H]1CC[C@@H]3[C@@]4(C)CC[C@H](OC(C)=O)C(C)(C)[C@@H]4CC[C@@]3(C)[C@]1(C)CC2`: the pEC50 was 5.60 in the experiment with A2780; 5.40 with NIH3T3; 5.68 with MCF7; 5.66 with 518A2; 5.92 with HT-29; 5.64 in the experiment on A549.
For `CC(=O)[C@@H]1CC[C@]2(C(=O)OCc3ccccc3)CC[C@]3(C)[C@H](CC[C@@H]4[C@@]5(C)CC[C@@H](N)C(C)(C)[C@@H]5CC[C@]43C)[C@@H]12`, the pEC50 in the experiment with A2780 was 5.55; with NIH3T3, 5.60; in the experiment on MCF7 it was 5.72; in the experiment on 518A2 it was 5.64; in the experiment on HT-29, 5.62; with A549 it was 5.44.
Take `COC(=O)[C@]12CC[C@@H](/C(C)=N/O)[C@@H]1[C@H]1CC[C@@H]3[C@@]4(C)CC[C@H](OC(C)=O)C(C)(C)[C@@H]4CC[C@@]3(C)[C@]1(C)CC2`: the pEC50 is 4.91 in the experiment on A2780; 4.85 with NIH3T3; 4.91 with MCF7; 5.11 in the experiment on 518A2; 4.84 in the experiment with HT-29; 5.09 in the experiment on A549.
`CC(=O)O[C@H]1CC[C@]2(C)[C@H]3CC[C@@H]4[C@H]5[C@H]([C@@H](C)N)CC[C@]5(C(=O)O)CC[C@@]4(C)[C@]3(C)CC[C@H]2C1(C)C`: the pEC50 in the experiment on A2780 was < 4.52; with NIH3T3, 4.57; in the experiment with MCF7, < 4.52; in the experiment with 518A2, 4.63; with HT-29 it was 4.68; in the experiment on A549, < 4.52.
Turning to `CC(=O)O[C@H]1CC[C@]2(C)[C@H]3CC[C@@H]4[C@H]5[C@H](C(C)=O)CC[C@]5(C(=O)NCCN5CCCC5)CC[C@@]4(C)[C@]3(C)CC[C@H]2C1(C)C`, the pEC50 in the experiment on A2780 was 5.37; with NIH3T3, 6.22; in the experiment with MCF7, 5.70; with 518A2, 5.48; in the experiment with HT-29 it was 5.66; with A549 it was 5.54.
`CC(=O)[C@@H]1CC[C@]2(C(=O)O)CC[C@]3(C)[C@H](CC[C@@H]4[C@@]5(C)CC[C@H](O)C(C)(C)[C@@H]5CC[C@]43C)[C@@H]12` [PLATANIC ACID]: the pEC50 in the experiment on A2780 was 4.43; in the experiment with NIH3T3, 4.45; in the experiment with MCF7, 4.47; with 518A2 it was 4.35; in the experiment on HT-29, 4.44; in the experiment with A549 it was 4.33.
Consider `COC(=O)[C@]12CC[C@@H](/C(C)=N/OC(C)=O)[C@@H]1[C@H]1CC[C@@H]3[C@@]4(C)CC[C@H](OC(C)=O)C(C)(C)[C@@H]4CC[C@@]3(C)[C@]1(C)CC2`, for which the pEC50 is 4.82 in the experiment with NIH3T3; 4.88 with MCF7; 4.78 in the experiment with 518A2; 4.62 in the experiment on HT-29; 4.87 with A549.

For the origin of these results see ChEMBL document CHEMBL4130577, “Platanic acid: A new scaffold for the synthesis of cytotoxic agents” (Eur J Med Chem, 2018).
